Assay: Plasma stability of capped peptides (KAI-9706 modified at amino and carboxy termini)
Settings: rat
Method: Plasma stability of capped peptides was compared. KAI-9706 was modified step-wise at its amino and carboxy termini. Plasma stability as measured by the percent of peptide composition remaining after 15 minutes.

Row | SMILES | remaining at 0.25 h
1 | CC[C@H](C)[C@H](NC(=O)[C@@H]1CCCN1C(=O)[C@H](C)NC(=O)[C@H](CC(=O)O)NC(=O)[C@H](Cc1c[nH]cn1)NC(=O)[C@@H](N)CSSC[C@H](NC(C)=O)C(=O)N[C@@H](Cc1ccc(O)cc1)C(=O)NCC(=O)N[C@@H](CCCNC(=N)N)C(=O)N[C@@H](CCCCN)C(=O)N[C@@H](CCCCN)C(=O)N[C@@H](CCCNC(=N)N)C(=O)N[C@@H](CCCNC(=N)N)C(=O)N[C@@H](CCC(N)=O)C(=O)N[C@@H](CCCNC(=N)N)C(=O)N[C@@H](CCCNC(=N)N)C(=O)N[C@@H](CCCNC(=N)N)C(=O)O)C(=O)NCC(=O)N[C@@H](Cc1ccc(O)cc1)C(=O)N[C@@H](CC(=O)O)C(=O)O [KAI-9706 carrier Ac—OH cargo H—OH] | 57%
2 | CC[C@H](C)[C@H](NC(=O)[C@@H]1CCCN1C(=O)[C@H](C)NC(=O)[C@H](CC(=O)O)NC(=O)[C@H](Cc1c[nH]cn1)NC(=O)[C@H](CSSC[C@H](N)C(=O)N[C@@H](Cc1ccc(O)cc1)C(=O)NCC(=O)N[C@@H](CCCNC(=N)N)C(=O)N[C@@H](CCCCN)C(=O)N[C@@H](CCCCN)C(=O)N[C@@H](CCCNC(=N)N)C(=O)N[C@@H](CCCNC(=N)N)C(=O)N[C@@H](CCC(N)=O)C(=O)N[C@@H](CCCNC(=N)N)C(=O)N[C@@H](CCCNC(=N)N)C(=O)N[C@@H](CCCNC(=N)N)C(N)=O)NC(C)=O)C(=O)NCC(=O)N[C@@H](Cc1ccc(O)cc1)C(=O)N[C@@H](CC(=O)O)C(N)=O [KAI-9706 carrier H—NH2 cargo Ac—NH2] | 51%
3 | CC[C@H](C)[C@H](NC(=O)[C@@H]1CCCN1C(=O)[C@H](C)NC(=O)[C@H](CC(=O)O)NC(=O)[C@H](Cc1c[nH]cn1)NC(=O)[C@@H](N)CSSC[C@H](N)C(=O)N[C@@H](Cc1ccc(O)cc1)C(=O)NCC(=O)N[C@@H](CCCNC(=N)N)C(=O)N[C@@H](CCCCN)C(=O)N[C@@H](CCCCN)C(=O)N[C@@H](CCCNC(=N)N)C(=O)N[C@@H](CCCNC(=N)N)C(=O)N[C@@H](CCC(N)=O)C(=O)N[C@@H](CCCNC(=N)N)C(=O)N[C@@H](CCCNC(=N)N)C(=O)N[C@@H](CCCNC(=N)N)C(N)=O)C(=O)NCC(=O)N[C@@H](Cc1ccc(O)cc1)C(=O)N[C@@H](CC(=O)O)C(=O)O [KAI-9706 carrier H—NH2 cargo H—OH] | 60%
4 | CC[C@H](C)[C@H](NC(=O)[C@@H]1CCCN1C(=O)[C@H](C)NC(=O)[C@H](CC(=O)O)NC(=O)[C@H](Cc1c[nH]cn1)NC(=O)[C@H](CSSC[C@H](N)C(=O)N[C@@H](Cc1ccc(O)cc1)C(=O)NCC(=O)N[C@@H](CCCNC(=N)N)C(=O)N[C@@H](CCCCN)C(=O)N[C@@H](CCCCN)C(=O)N[C@@H](CCCNC(=N)N)C(=O)N[C@@H](CCCNC(=N)N)C(=O)N[C@@H](CCC(N)=O)C(=O)N[C@@H](CCCNC(=N)N)C(=O)N[C@@H](CCCNC(=N)N)C(=O)N[C@@H](CCCNC(=N)N)C(=O)O)NC(C)=O)C(=O)NCC(=O)N[C@@H](Cc1ccc(O)cc1)C(=O)N[C@@H](CC(=O)O)C(N)=O [KAI-9706 carrier H—OH cargo Ac—NH2] | 0%
5 | CC[C@H](C)[C@H](NC(=O)[C@@H]1CCCN1C(=O)[C@H](C)NC(=O)[C@H](CC(=O)O)NC(=O)[C@H](Cc1c[nH]cn1)NC(=O)[C@H](CSSC[C@H](N)C(=O)N[C@@H](Cc1ccc(O)cc1)C(=O)NCC(=O)N[C@@H](CCCNC(=N)N)C(=O)N[C@@H](CCCCN)C(=O)N[C@@H](CCCCN)C(=O)N[C@@H](CCCNC(=N)N)C(=O)N[C@@H](CCCNC(=N)N)C(=O)N[C@@H](CCC(N)=O)C(=O)N[C@@H](CCCNC(=N)N)C(=O)N[C@@H](CCCNC(=N)N)C(=O)N[C@@H](CCCNC(=N)N)C(=O)O)NC(C)=O)C(=O)NCC(=O)N[C@@H](Cc1ccc(O)cc1)C(=O)N[C@@H](CC(=O)O)C(=O)O [KAI-9706 carrier H—OH cargo Ac—OH] | 1%

Reference: patent US20090318351A1, “METHOD OF TREATING ACUTE ST-ELEVATION MYOCARDIAL INFARCTION WITH A DELTA PKC ANTAGONIST” (priority 2008, published 2009)
